Measured values: ChEMBL document CHEMBL1201862, “PubChem BioAssay data set” (2004)
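Growth conditions: 96-well plates. Treatment: test compound, 48 hours, 5 concentrations. Analysis: linear interpolation between bracketing concentrations; unreached endpoints set to highest concentration. Abbreviation: GI50, concentration required for 50% inhibition of growth.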 The source made the active and inactive calls. No stated cut-off is given here; in the data, active = GI50 up to about 1.1 µM and inactive = higher.

Experiments:
Test in all cases: NCI tumour cell line growth inhibition, 48 h
SF-295 = test system: SF-295
786-0 = test system: 786-0
CAKI-1 = test system: CAKI-1
OVCAR-5 = test system: OVCAR-5
NCI-H522 = test system: NCI-H522
COLO 205 = test system: COLO 205
SK-MEL-5 = test system: SK-MEL-5
NCI-H23 = test system: NCI-H23
EKVX = test system: EKVX
UO-31 = test system: UO-31
HCC 2998 = test system: HCC 2998
IGROV-1 = test system: IGROV-1
A549 = test system: A549
M14 = test system: M14
CCRF-CEM = test system: CCRF-CEM
MDA-MB-435 = test system: MDA-MB-435
Malme-3M = test system: Malme-3M
MCF7 = test system: MCF7
HOP-62 = test system: HOP-62
BT-549 = test system: BT-549

For N#CC(C#N)=Cn1c(=S)[nH]c2ccc([N+](=O)[O-])cc21, the GI50 (SF-295) was > 100 µM (inactive), the GI50 (786-0) was > 100 µM (inactive) and the GI50 (CAKI-1) was 71.4 µM (inactive). For the same compound, the GI50 (OVCAR-5) was > 100 µM (inactive), the GI50 (NCI-H522) was > 100 µM (inactive) and the GI50 (COLO 205) was > 100 µM (inactive). For the same compound, the GI50 (SK-MEL-5) was > 100 µM (inactive), the GI50 (NCI-H23) was > 100 µM (inactive) and the GI50 (EKVX) was > 100 µM (inactive). The GI50 (UO-31) was > 100 µM (inactive), the GI50 (HCC 2998) was > 100 µM (inactive) and the GI50 (IGROV-1) was > 100 µM (inactive). The GI50 (A549) was > 100 µM (inactive), the GI50 (M14) was > 100 µM (inactive) and the GI50 (CCRF-CEM) was > 100 µM (inactive). The GI50 (MDA-MB-435) was > 100 µM (inactive), the GI50 (Malme-3M) was > 100 µM (inactive) and the GI50 (MCF7) was > 100 µM (inactive). For the same compound, the GI50 (HOP-62) was > 100 µM (inactive).
For CC(=O)OCOC(=O)CN(CC(=O)OCOC(C)=O)Cc1cc2c(cc1OC(C)=O)Oc1cc(OC(C)=O)c(CN(CC(=O)OCOC(C)=O)CC(=O)OCOC(C)=O)cc1C21OC(=O)c2ccccc21, the GI50 (SF-295) was 1.59 µM (inactive), the GI50 (786-0) was 0.346 µM (active) and the GI50 (CAKI-1) was 2.34 µM (inactive). The GI50 (OVCAR-5) was 2.94 µM (inactive), the GI50 (NCI-H522) was 0.237 µM (active) and the GI50 (COLO 205) was 0.594 µM (active). For the same compound, the GI50 (SK-MEL-5) was 0.953 µM (active), the GI50 (NCI-H23) was 0.481 µM (active) and the GI50 (EKVX) was 2.52 µM (inactive). For the same compound, the GI50 (UO-31) was 1.82 µM (inactive), the GI50 (IGROV-1) was 0.277 µM (active) and the GI50 (A549) was 0.953 µM (active). The GI50 (M14) was 1.16 µM (inactive), the GI50 (BT-549) was 0.265 µM (active) and the GI50 (CCRF-CEM) was 0.11 µM (active). For the same compound, the GI50 (MDA-MB-435) was 0.782 µM (active), the GI50 (Malme-3M) was 0.902 µM (active) and the GI50 (MCF7) was 0.342 µM (active). The GI50 (HOP-62) was 1.1 µM (active).
COc1ccccc1Nc1nc2c([nH]1)c(=O)n(C)c(=O)n2C was tested, and the GI50 (SF-295) was > 10 µM (inactive), the GI50 (786-0) was > 10 µM (inactive) and the GI50 (CAKI-1) was > 10 µM (inactive). The GI50 (COLO 205) was > 10 µM (inactive), the GI50 (SK-MEL-5) was > 10 µM (inactive) and the GI50 (NCI-H23) was > 10 µM (inactive). For the same compound, the GI50 (EKVX) was > 10 µM (inactive), the GI50 (HCC 2998) was > 10 µM (inactive) and the GI50 (IGROV-1) was > 10 µM (inactive). For the same compound, the GI50 (A549) was > 10 µM (inactive), the GI50 (M14) was > 10 µM (inactive) and the GI50 (CCRF-CEM) was > 10 µM (inactive). For the same compound, the GI50 (MDA-MB-435) was > 10 µM (inactive), the GI50 (Malme-3M) was > 10 µM (inactive) and the GI50 (MCF7) was > 10 µM (inactive). For the same compound, the GI50 (HOP-62) was > 10 µM (inactive).
With COc1ccc(/C=C/C(=O)c2cc(OC)cc(OC)c2)cc1 the GI50 (SF-295) was 1.24 µM (inactive), the GI50 (786-0) was 1.16 µM (inactive) and the GI50 (CAKI-1) was 2.59 µM (inactive). The GI50 (OVCAR-5) was 5.6 µM (inactive), the GI50 (NCI-H522) was 2.22 µM (inactive) and the GI50 (COLO 205) was 4.56 µM (inactive). For the same compound, the GI50 (SK-MEL-5) was 10.3 µM (inactive), the GI50 (NCI-H23) was 2.58 µM (inactive) and the GI50 (EKVX) was 6.52 µM (inactive). The GI50 (UO-31) was 3.27 µM (inactive), the GI50 (HCC 2998) was 4.44 µM (inactive) and the GI50 (IGROV-1) was 4.57 µM (inactive). The GI50 (A549) was 2.13 µM (inactive), the GI50 (M14) was 2.45 µM (inactive) and the GI50 (CCRF-CEM) was 2.07 µM (inactive). The GI50 (MDA-MB-435) was 1.54 µM (inactive), the GI50 (Malme-3M) was 13.6 µM (inactive) and the GI50 (MCF7) was 0.219 µM (active). For the same compound, the GI50 (HOP-62) was 3.78 µM (inactive).
Cc1cccc(C)c1NC(=O)C(Cc1c[nH]c2ccccc12)NC(=O)OCc1ccccc1 (stereo not drawn) was tested, and the GI50 (SF-295) was 17 µM (inactive), the GI50 (786-0) was 20.1 µM (inactive) and the GI50 (CAKI-1) was 16.9 µM (inactive). The GI50 (OVCAR-5) was 18.8 µM (inactive), the GI50 (NCI-H522) was 20.1 µM (inactive) and the GI50 (COLO 205) was 13.2 µM (inactive). The GI50 (SK-MEL-5) was 13.5 µM (inactive), the GI50 (NCI-H23) was 24 µM (inactive) and the GI50 (EKVX) was 15.2 µM (inactive). For the same compound, the GI50 (UO-31) was 10.3 µM (inactive), the GI50 (IGROV-1) was 19.6 µM (inactive) and the GI50 (A549) was 14.6 µM (inactive). The GI50 (M14) was 11.5 µM (inactive), the GI50 (BT-549) was 24.8 µM (inactive) and the GI50 (CCRF-CEM) was 17.8 µM (inactive). For the same compound, the GI50 (MDA-MB-435) was 14.7 µM (inactive), the GI50 (Malme-3M) was 20.1 µM (inactive) and the GI50 (MCF7) was 23.2 µM (inactive). For the same compound, the GI50 (HOP-62) was 41 µM (inactive).
For CC(c1ccccc1)N1CCN(C(C)c2ccccc2)CC1 (stereo not drawn), the GI50 (SF-295) was > 100 µM (inactive), the GI50 (786-0) was > 100 µM (inactive) and the GI50 (CAKI-1) was > 100 µM (inactive). For the same compound, the GI50 (OVCAR-5) was > 100 µM (inactive), the GI50 (NCI-H522) was > 100 µM (inactive) and the GI50 (SK-MEL-5) was 17.1 µM (inactive). For the same compound, the GI50 (NCI-H23) was > 100 µM (inactive), the GI50 (EKVX) was > 100 µM (inactive) and the GI50 (UO-31) was > 100 µM (inactive). The GI50 (HCC 2998) was 20.1 µM (inactive), the GI50 (IGROV-1) was > 100 µM (inactive) and the GI50 (A549) was > 100 µM (inactive). The GI50 (M14) was 22.8 µM (inactive), the GI50 (BT-549) was > 100 µM (inactive) and the GI50 (MDA-MB-435) was 80.4 µM (inactive). For the same compound, the GI50 (Malme-3M) was 56.6 µM (inactive) and the GI50 (HOP-62) was > 100 µM (inactive).
CCOC(=O)c1c(SC(=O)C(C)(C)Oc2ccc(Cl)cc2)n(-c2ccccc2)c(=S)n(-c2ccccc2)c1=O was tested, and the GI50 (SF-295) was 59.2 µM (inactive), the GI50 (786-0) was 27.6 µM (inactive) and the GI50 (CAKI-1) was > 100 µM (inactive). The GI50 (OVCAR-5) was 67 µM (inactive), the GI50 (NCI-H522) was 39.8 µM (inactive) and the GI50 (COLO 205) was 20.7 µM (inactive). For the same compound, the GI50 (NCI-H23) was 61.7 µM (inactive), the GI50 (EKVX) was 52.8 µM (inactive) and the GI50 (HCC 2998) was > 100 µM (inactive). For the same compound, the GI50 (IGROV-1) was 20.1 µM (inactive), the GI50 (A549) was 26.9 µM (inactive) and the GI50 (M14) was 30.3 µM (inactive). The GI50 (CCRF-CEM) was 30.1 µM (inactive), the GI50 (MDA-MB-435) was 33 µM (inactive) and the GI50 (Malme-3M) was 23 µM (inactive). The GI50 (MCF7) was 21.5 µM (inactive) and the GI50 (HOP-62) was 26 µM (inactive).
O=c1[nH]c(=O)n(C2CC(O)C(CO)O2)cc1C#Cc1ccc(F)cc1 (stereo not drawn) was tested, and the GI50 (SF-295) was > 100 µM (inactive), the GI50 (786-0) was > 100 µM (inactive) and the GI50 (CAKI-1) was > 100 µM (inactive). The GI50 (OVCAR-5) was > 100 µM (inactive), the GI50 (NCI-H522) was > 100 µM (inactive) and the GI50 (COLO 205) was > 100 µM (inactive). The GI50 (SK-MEL-5) was > 100 µM (inactive), the GI50 (NCI-H23) was > 100 µM (inactive) and the GI50 (EKVX) was > 100 µM (inactive). For the same compound, the GI50 (UO-31) was > 100 µM (inactive), the GI50 (HCC 2998) was > 100 µM (inactive) and the GI50 (IGROV-1) was > 100 µM (inactive). For the same compound, the GI50 (A549) was > 100 µM (inactive), the GI50 (M14) was > 100 µM (inactive) and the GI50 (CCRF-CEM) was > 100 µM (inactive). For the same compound, the GI50 (Malme-3M) was > 100 µM (inactive) and the GI50 (HOP-62) was > 100 µM (inactive).
